The structures appear in SMILES notation.

The target of the assay is T1, delF508-CFTR (Homo sapiens, UniProt P13569, DEL508-508).
T1 construct: expressed in transfected cells
The assay is described as follows: Measurement of delF508-CFTR-HRP surface expression in CFBE41o- cells. Type of assay: cell-based. As to conditions: for EC50: HRP-tagged delF508-CFTR in CFBE41o- cells, 24 h with compound, luminescence, 10-point curve, top 10 μM; for Emax: efficacy relative to reference compound 3-(6-(1-(2,2-difluorobenzo[d][1,3]dioxol-5-yl)cyclopropane-1-carboxamido)-3-methylpyridin-2-yl)benzoic acid, CFBE41o- cells, 24 h, read-out: DelF508-CFTR-HRP Amax %. From the text: Measurement of delF508-CFTR-HRP Surface Expression in CFBE41o-Cells
This assay quantifies the cell surface expressions of the mutant CFTR channel using an extracellular HRP tag.
A cellular assay was developed to measure surface expression of horseradish peroxidase (HRP) tagged delF508-CFTR in the human bronchial epithelial immortalized CFBE41o-cell line (Phuan, P. W., et al, (2014) Molecular Pharmacology 86:42-51). Specifically, the HRP sequence was inserted into the fourth extracellular loop of delF508-CFTR and stably expressed in CFBE41o-cells. Cells were seeded in 384 well plate at a density of 5000 cells/well and incubated at 37° C. for 12 to 24 hours in medium (Gibco MEM #11095, 10% FBS, 10 mM HEPES, […], 200 μg/mL G418, 3 μg/mL Puromycin). The delF508-CFTR-HRP expression was induced with 500 ng/mL doxycycline (Sigma D-9891, dissolved in H2O and sterile filtered) in medium and the cells were incubated at 37° C. for 48 h. Old medium was removed and fresh medium was added containing 500 ng/mL doxycycline and unknown test compound at required test concentration in DMSO, not exceeding 0.5% final DMSO concentration. The highest concentration tested was 10 μM with a 10-point concentration response curve using a 3-fold dilution. After addition of compounds, the cells were incubated for 24 h at 37° C. On the final day, cells were washed four times in PBS containing 1 mM MgCl2 and 0.1 mM CaCl2. HRP-Substrate (SuperSignal ELISA Pico, Fisher #37069) 20 μl/well was added and the luminescence signal was determined (Viewlux, Perkin Elmer). Light was emitted upon addition of exogenous HRP-Substrate only when delF508-CFTR-HRP reached the cell surface and the HRP tag was accessible to the HRP-Substrate (note: HRP-Substrate cannot cross the lipid bilayer to reach delF508-CFTR-HRP misfolded within the cell).
The median activity for the lowest concentration of the compounds on each assay plate was calculated and this value was used to normalize the signal for each well on the respective plate. Three replicates at each concentrations for every compound were run to determine one EC50. The median value was determined and used to calculate compound activities as described below. Effective half maximal values (EC50) were calculated for each compound by performing logistic regression on measured dose-response data points using the equation: […]
where “Y” is the observed activity, “Bottom” is the lowest observed value, “Top” is the highest observed value, and the “Hill coefficient” gives the largest absolute value of the slope. The curve fitting is carried out by a curve fitting program implemented at GNF using Matlab (Mathworks).
The dose response curves also were used to calculate Fold Change (FC) using the equation: […]
Compound efficacy relative to the reference compound 3-(6-(1-(2,2-difluorobenzo[d][1,3]dioxol-5-yl)cyclopropane-1-carboxamido)-3-methylpyridin-2-yl)benzoic acid was determined using the following formula: […]

T1 sequence (P13569 with tags, fused parts or gaps DEL508-508): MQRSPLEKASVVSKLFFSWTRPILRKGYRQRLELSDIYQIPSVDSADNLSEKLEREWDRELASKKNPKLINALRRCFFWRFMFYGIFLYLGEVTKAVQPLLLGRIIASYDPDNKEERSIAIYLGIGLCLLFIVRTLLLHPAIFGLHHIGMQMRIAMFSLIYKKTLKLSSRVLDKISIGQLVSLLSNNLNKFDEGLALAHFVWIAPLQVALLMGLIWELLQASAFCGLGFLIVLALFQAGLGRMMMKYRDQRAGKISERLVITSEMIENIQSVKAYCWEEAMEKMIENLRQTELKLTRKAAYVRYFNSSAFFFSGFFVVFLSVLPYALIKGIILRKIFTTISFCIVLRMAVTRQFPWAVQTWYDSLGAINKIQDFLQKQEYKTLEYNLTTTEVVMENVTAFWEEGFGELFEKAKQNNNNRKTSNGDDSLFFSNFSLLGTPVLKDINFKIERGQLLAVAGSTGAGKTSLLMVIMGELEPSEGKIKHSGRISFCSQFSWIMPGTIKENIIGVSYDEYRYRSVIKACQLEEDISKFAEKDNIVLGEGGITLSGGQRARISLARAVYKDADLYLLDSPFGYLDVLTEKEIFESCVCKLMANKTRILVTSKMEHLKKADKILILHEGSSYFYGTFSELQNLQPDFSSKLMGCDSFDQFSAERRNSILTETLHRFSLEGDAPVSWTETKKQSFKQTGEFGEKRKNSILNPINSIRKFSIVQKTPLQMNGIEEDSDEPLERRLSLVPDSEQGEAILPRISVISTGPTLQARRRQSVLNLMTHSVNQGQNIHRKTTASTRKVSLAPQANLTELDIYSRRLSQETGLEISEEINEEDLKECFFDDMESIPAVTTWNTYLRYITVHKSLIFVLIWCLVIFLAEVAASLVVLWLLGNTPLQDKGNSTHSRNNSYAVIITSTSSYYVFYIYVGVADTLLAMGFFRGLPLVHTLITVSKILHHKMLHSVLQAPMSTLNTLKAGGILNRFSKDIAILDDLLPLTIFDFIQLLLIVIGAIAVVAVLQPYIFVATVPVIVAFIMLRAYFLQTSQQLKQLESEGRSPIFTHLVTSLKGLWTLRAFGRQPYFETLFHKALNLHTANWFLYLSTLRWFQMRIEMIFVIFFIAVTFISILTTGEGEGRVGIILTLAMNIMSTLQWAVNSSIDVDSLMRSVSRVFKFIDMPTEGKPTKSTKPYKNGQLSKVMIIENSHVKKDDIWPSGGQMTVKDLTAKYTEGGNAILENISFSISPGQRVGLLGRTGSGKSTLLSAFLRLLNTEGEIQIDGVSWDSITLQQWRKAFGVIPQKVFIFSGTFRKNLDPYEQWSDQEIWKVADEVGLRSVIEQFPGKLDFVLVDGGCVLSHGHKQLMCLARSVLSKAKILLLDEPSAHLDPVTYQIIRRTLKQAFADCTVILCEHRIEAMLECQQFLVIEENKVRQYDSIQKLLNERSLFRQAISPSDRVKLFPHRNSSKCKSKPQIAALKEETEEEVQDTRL

As for `CCC(CC(=O)O)Nc1cc(S(=O)(=O)Nc2ccc(Cl)c(-c3c(C)cccc3C)n2)ccn1` (stereo not shown) [Compound 141], the EC50 was 3940 nM and the Emax came out at 291%. For the compound `Cc1ccccc1-c1nc(NS(=O)(=O)c2cccc(N(CCC(=O)O)C(C)C)n2)ccc1C(F)(F)F` [Compound 91, 3-(isopropyl(6-(N-(6-(o-tolyl)-5-(trifluoromethyl)pyridin-2-yl)sulfamoyl)pyridin-2-yl)amino)propanoic Acid], the EC50 was determined as 1670 nM. With `Cc1ccccc1-c1nc(NS(=O)(=O)c2cccc(NCC(=O)O)n2)ccc1C(F)(F)F` [Compound 146, (6-(N-(6-(o-tolyl)-5-(trifluoromethyl)pyridin-2-yl)sulfamoyl)pyridin-2-yl)glycine], the EC50 was found to be 2500 nM and the Emax was determined as 60%.

Regarding `Cc1ccccc1-c1nc(NS(=O)(=O)c2cccc(N3CCCC(C)(CC(=O)O)C3)n2)ccc1C(F)(F)F` (stereo not shown) [Compound 51, 2-(3-methyl-1-(6-(N-(6-(o-tolyl)-5-(trifluoromethyl)pyridin-2-yl)sulfamoyl)pyridin-2-yl)piperidin-3-yl)acetic Acid], the EC50 amounted to 1600 nM. Still for that read-out and setting: the figure for `CC(C)c1ccccc1-c1nc(NS(=O)(=O)c2cccc(N(C)CCC(=O)O)n2)ccc1C(F)(F)F` [Compound 44, 3-((6-(N-(6-(2-isopropylphenyl)-5-(trifluoromethyl)pyridin-2-yl)sulfamoyl)pyridin-2-yl)(methyl)amino)propanoic Acid] is 1520 nM. Consider `Cc1cccc(C)c1-c1nc(NS(=O)(=O)c2ccnc(NCCC(=O)O)c2)ccc1Cl` [Compound 2, 3-((4-(N-(5-chloro-6-(2,6-dimethylphenyl)pyridin-2-yl)sulfamoyl)pyridin-2-yl)amino)propanoic Acid], for which the EC50 was determined as 2720 nM and the Emax came to 124%. For `Cc1ccccc1-c1nc(NS(=O)(=O)c2cccc(NCC3(C(=O)O)CCC3)n2)ccc1C(F)(F)F` [Compound 12, 1-(((6-(N-(6-(o-tolyl)-5-(trifluoromethyl)pyridin-2-yl)sulfamoyl)pyridin-2-yl)amino)methyl)cyclobutane-1-carboxylic Acid] the same measures were 2300 nM and 608%. For `Cc1ccccc1-c1nc(NS(=O)(=O)c2cccc(NCC(C)(C)C(=O)O)n2)ccc1C(F)(F)F` [Compound 8, 2,2-dimethyl-3-((6-(N-(6-(o-tolyl)-5-(trifluoromethyl)pyridin-2-yl)sulfamoyl)pyridin-2-yl)amino)propanoic Acid] the same measures were 1850 nM and 271%.

Take `CCc1ccc(F)cc1-c1nc(NS(=O)(=O)c2cccc(N(CCC(=O)O)CC3CC3)n2)ccc1C(F)(F)F` [Compound 116, 3-((cyclopropylmethyl)(6-(N-(6-(2-ethyl-5-fluorophenyl)-5-(trifluoromethyl)pyridin-2-yl)sulfamoyl)pyridin-2-yl)amino)propanoic Acid]: the EC50 is 1210 nM. For the compound `O=C(O)CC1CCN(c2cccc(S(=O)(=O)Nc3ccc(C(F)(F)F)c(-c4ccccc4C4CCC4)n3)n2)CC1` [Compound 17, 2-(1-(6-(N-(6-(2-cyclobutylphenyl)-5-(trifluoromethyl)pyridin-2-yl)sulfamoyl)pyridin-2-yl)piperidin-4-yl)acetic Acid], the EC50 was 1460 nM and the Emax worked out at 369%. The matching figures for `CN(CCC(=O)O)c1cccc(S(=O)(=O)Nc2ccc(C(F)(F)F)c(-c3ccccc3C3CC3)n2)n1` [Compound 38, 3-((6-(N-(6-(2-cyclopropylphenyl)-5-(trifluoromethyl)pyridin-2-yl)sulfamoyl)pyridin-2-yl)(methyl)amino)propanoic Acid]: 1700 nM and 742%. The matching figures for `Cc1c(F)cccc1-c1nc(NS(=O)(=O)c2cccc(N3CCC(C)(CC(=O)O)CC3)n2)ccc1C(F)(F)F` [Compound 13, 2-(1-(6-(N-(6-(3-fluoro-2-methylphenyl)-5-(trifluoromethyl)pyridin-2-yl)sulfamoyl)pyridin-2-yl)-4-methylpiperidin-4-yl)acetic Acid]: 2400 nM and 370%. Regarding `C=Cc1ccccc1-c1nc(NS(=O)(=O)c2cccc(N3CCC[C@@H](CC(=O)O)C3)n2)ccc1C(F)(F)F` [Compound 58, (S)-2-(1-(6-(N-(5-(trifluoromethyl)-6-(2-vinylphenyl)pyridin-2-yl)sulfamoyl)pyridin-2-yl)piperidin-3-yl)acetic Acid], the EC50 worked out at 2370 nM.

Regarding `Cc1ccccc1-c1nc(NS(=O)(=O)c2cccc(N[C@@H]3[C@H]4CC[C@H](C4)[C@@H]3C(=O)O)n2)ccc1C(F)(F)F` (racemic) [108a 108b (racemic mixture)], the EC50 came to 2070 nM and the Emax was 569%. For `CCc1ccc(F)cc1-c1nc(NS(=O)(=O)c2cccc(N(CCCCC(=O)O)C(C)C)n2)ccc1C(F)(F)F` [Compound 99, 5-((6-(N-(6-(2-ethyl-5-fluorophenyl)-5-(trifluoromethyl)pyridin-2-yl)sulfamoyl)pyridin-2-yl)(isopropyl)amino)pentanoic Acid], the EC50 came to 1330 nM. As for `Cc1ccc(F)cc1-c1nc(NS(=O)(=O)c2cccc(N3CCC(C)(CC(=O)O)CC3)n2)ccc1C(F)(F)F` [Compound 6, 2-(1-(6-(N-(6-(5-fluoro-2-methylphenyl)-5-(trifluoromethyl)pyridin-2-yl)sulfamoyl)pyridin-2-yl)-4-methylpiperidin-4-yl)acetic Acid], the EC50 was determined as 1520 nM and the Emax turned out to be 529%. Consider `CCN(CCCC(=O)O)c1cccc(S(=O)(=O)Nc2ccc(C(F)(F)F)c(-c3ccccc3C(C)C)n2)n1` [Compound 89, 4-(ethyl(6-(N-(6-(2-isopropylphenyl)-5-(trifluoromethyl)pyridin-2-yl)sulfamoyl)pyridin-2-yl)amino)butanoic Acid], for which the EC50 came out at 970 nM.

`Cc1ccccc1-c1nc(NS(=O)(=O)c2cccc(NC(C(=O)O)C34CC5CC(CC(C5)C3)C4)n2)ccc1C(F)(F)F` (stereo not shown) [Compound 143, 2-(adamantan-1-yl)-2-((6-(N-(6-(o-tolyl)-5-(trifluoromethyl)pyridin-2-yl)sulfamoyl)pyridin-2-yl)amino)acetic Acid]: the EC50 was 2390 nM.

In the case of `Cc1ccccc1-c1nc(NS(=O)(=O)c2cccc(N3CCCCC3CCC(=O)O)n2)ccc1C(F)(F)F` (stereo not shown) [Compound 98, 3-(1-(6-(N-(6-(o-tolyl)-5-(trifluoromethyl)pyridin-2-yl)sulfamoyl)pyridin-2-yl)piperidin-2-yl)propanoic Acid], the EC50 turned out to be 1540 nM. On the same count and under the same terms, the figure for `Cc1ccccc1-c1nc(NS(=O)(=O)c2cccc(N(CCC(=O)O)CCC(F)(F)F)n2)ccc1C(F)(F)F` [Compound 150, 3-((6-(N-(6-(o-tolyl)-5-(trifluoromethyl)pyridin-2-yl)sulfamoyl)pyridin-2-yl)(3,3,3-trifluoropropyl)amino)propanoic Acid] is 1670 nM; for `C=Cc1ccccc1-c1nc(NS(=O)(=O)c2cccc(N3CCCC(CCC(=O)O)C3)n2)ccc1C(F)(F)F` (stereo not shown) [Compound 74, 3-(1-(6-(N-(5-(trifluoromethyl)-6-(2-vinylphenyl)pyridin-2-yl)sulfamoyl)pyridin-2-yl)piperidin-3-yl)propanoic Acid] it is 1090 nM.

Values taken from patent publication US20220127247A1, “N-(PYRIDIN-2-YL)PYRIDINE-SULFONAMIDE DERIVATIVES AND THEIR USE IN THE TREATMENT OF DISEASE” (NOVARTIS AG, priority 2019, published 2022).
